{"source": "patent US20100093867A1", "about": "“Method Of Treating Genetic Disease Caused By Nonsense Mutation” (priority 2006, published 2010)", "key": {"[1]": {"test_system": "mdx mouse", "test": "Effect of administration on a muscular dystrophy mouse model", "type": "in vivo", "details": "into the stomach, 4 or 400 mg/kg/day for 7 days", "method": "The aforementioned compound 2 was studied for its effect of administration on a muscular dystrophy mouse model. An mdx mouse was used as a muscular dystrophy mouse model. The compound 2 was administered forcibly into the stomach of an mdx mouse at a dose of 4 or 400 mg/kg/day for 7 days, and then biochemical and immuno-histochemical analyses were conducted."}, "[2]": {"test_system": "mdx mouse", "test": "Side effects in mice", "type": "in vivo", "details": "subcutaneous, 4 or 400 mg/kg/day for 14 days", "method": "The aforementioned compound 2 was studied for side effects in mice.\nThe compound 2 was injected subcutaneously to an mdx mouse at a dose of 4 or 400 mg/kg/day for 14 days."}, "[3]": {"test_system": "mouse models for muscular dystrophy", "details": "Patent document 1; cited from earlier work"}, "[4]": {"test_system": "airway epithelium of patients with cystic fibrosis", "details": "topical administration to airway epithelium, Non-patent document 2; cited from earlier work"}, "[5]": {"test_system": "patients with Duchenne muscular dystrophy", "details": "Non-patent document 1; cited from earlier work"}}, "data": [{"compound": "CC(=O)NC(CC(N)=O)C(=O)O", "note": "(stereo not drawn) [compound 2]", "values": [{"measurement": "results compared to positive control group administered with gentamicin", "setting": "[1]", "result": "favorable results compared to a positive control group administered with gentamicin"}, {"measurement": "serum creatine kinase activity", "setting": "[1]", "result": "reduced"}, {"measurement": "dystrophin in muscles (e.g. hind limb)", "setting": "[1]; immuno-histochemical analysis", "result": "accumulated"}, {"measurement": "body weight during the administration period", "setting": "[2]", "result": "no decrease"}, {"measurement": "hearing test that measures auditory brainstem response", "setting": "[2]", "result": "no abnormal values"}, {"measurement": "eighteen serological and biochemical tests", "setting": "[2]; total protein, albumin, AST, ALT, ALP, γ-GTP, creatinine, glucose, lipids, electrolytes, bilirubin etc.", "result": "no abnormal values"}]}, {"compound": "CN(CC(=O)O)NC(=O)C[C@H](N)C[C@@H](O)CN", "note": "[negamycin]", "values": [{"measurement": "dystrophin expression", "setting": "[3]", "result": "restore a dystrophin expression"}]}, {"compound": "gentamicin", "values": [{"measurement": "typical electrophysiological abnormalities", "setting": "[4]", "result": "could correct"}, {"measurement": "dystrophin protein", "setting": "[5]", "result": "led to accumulation of dystrophin protein"}]}]}
